{
  "source": "patent US5358936A",
  "about": "“Anionic furanose derivatives, methods of making and using the same” (Gordon; Paul, priority 1991, dated 1994)",
  "key": {"[1]": {"tested_on": "rat paw", "assay": "Post-ischemic reperfusion paw swelling (Example 22)", "type": "in vivo, Sprague Dawley male rats", "details": "for % Change as a result of treatment / Paw swelling, Mean ± SE: another study; for Paw swelling, Mean ± SE: i.p. 45 minutes prior; for Post-ischemic reperfusion 30 minute paw swelling, Mn ± SE: P < 0.02", "source_text": "This important disease model is used to evaluate aspects of tissue injury that occur in heart attack, or myocardial infarction, and stroke. Under these conditions, a significant period of injury can occur after blood flow has been restored, during the period of reperfusion.\nTo produce ischemia, blood flow to the left hind foot was largely interrupted by application of a tourniquet made up of two size 18 rubber bands wound eight times around the leg just behind the heel. […] Both application and removal of tourniquet were carried out under ether anesthesia. Injury was equated with organ swelling, which was assayed by measurement of the dorsoventral foot diameter with a Schnelltaster caliper, just before application of the tourniquet and at various times following tourniquet removal, during the reperfusion period.\nRats employed were Sprague Dawley males, weighing 240-280 grams. Drug comparisons were made here employing measurements 30 minutes into the reperfusion period. The widely studied drug allopurinol, a xanthine oxidase inhibitor and a free radical scavenging agent, used in the treatment of gout, and widely used to suppress experimental post-ischemic reperfusion injury was used as an experimental treatment standard. In studies below, allopurinol and all new drugs were given intraperitoneally 45-60 minutes prior to application of the tourniquet. Data are reported as the mean swelling (Mn)±standard error (SE). […] Group n is 5 or 6.\nIn another study, drug comparisons were made at various times after the reperfusion period. In this study, control and drug treatment groups were as above."}, "[2]": {"tested_on": "gastric mucosal ulcers", "assay": "Healing of established gastric ulcers induced by acetic acid (Example 34)", "type": "in vivo, rat", "details": "rat, in vivo; tripotassium salt", "source_text": "To evaluate drug effects on peptic ulcer healing, gastric mucosal ulcers were produced in rats, after a two day fast, by a modification of the method of Konturek et al., Am. J. Med., Vol. 86, 6A, 32 (1989). Briefly, to produce a mucosal ulcer, Konturek et al. applied 100 percent acetic acid for twenty seconds to the stomach serosa through a small cylindrical mold, 4.2 mm in diameter. The aim here was to make ulceration more severe than was achieved by the Konturek group so that spontaneous healing would not be as pronounced as they found in the controls, over an experimental period of seven days.\nAll drugs studied were suspended in 0.25 percent (by weight) aqueous methylcellulose solution as the vehicle or diluent, which also served as the placebo given to the controls. Treatments were given once daily by oral gavage, in one milliliter of vehicle. The treatment groups were: Control; Sucralfate at 200 mg/kg; and Compound III:Al at 200 mg/kg.\nAt the end of the treatment period, stomachs were removed, ulcer diameters were measured, and determination was made of the presence or absence of perforation.\nA second study was carried out in which ulcer evolution was permitted to take place over five additional days, in the absence and presence of treatment with Sucralfate.\nA third study was begun one day following the start of study 2, in which ulcer evolution was allowed to take place over five additional days, in the absence and presence of treatment with Compound III:Al.\nIn another study, after ulcer induction as above, a different dosage protocol was employed at 24 hours to evaluate the interaction of Compound III and orally administered sucralfate on ulcer healing. […] Here, daily drug doses of the following were used: (a) sucralfate at 200 mg/kg, alone and (b) in combination with 80 mg/kg Compound III given by mouth at -45 minutes, and, in a third group, (c) in combination with 10 mg/kg Compound III given IV also at -45 minutes. In this interaction study, drug treatment was continued for three and not five days, as was the case for the above studies, followed by passage of two additional non-treatment days before sacrifice of animals for evaluation of stomach ulcer area and perforation.\nData from all ulcer-healing studies employing a drug dosage of 200 mg/kg and the same ulcerogenesis protocol were pooled as to the frequency of gastric perforation observed on day five, not shown separately, with the day six perforation data shown above."}, "[3]": {"tested_on": "lung gross pathology", "assay": "Generalized Schwartzmann Reaction (Example 28 A)", "type": "in vivo, rabbit", "details": "P < 0.01", "procedure": "The Generalized Schwartzmann Reaction (GSR) is a pathology in which two intravenous injections of non-lethal amounts of bacterial endotoxin, when separated by 8 to 36 hours, promote thrombotic and tissue-destructive processes in the lung, producing disseminated pulmonary thrombosis and necrosis in otherwise untreated rabbits.\nA. In this study, eight six-week old salmonella-free male rabbits each weighing about 1.5 kg were injected IV with saline vehicle and eight similar rabbits were injected IV with 50 mg/kg of Compound III in the same vehicle. One hour later, all of the animals were injected IV with 100 μg of E. coli lipopolysaccharide (LPS; Sigma Chemical Co.) on day one and with the same amount of LPS on day two, twenty hours later. Animals were evaluated for clinical signs at 24 and 48 hours, and were sacrificed for organ evaluation 48 hours after the second endotoxin injection.\nIn assessing gross pathology, separate scores were developed in four categories and these were then summed and added, in one instance, to a score for clinical signs.\nGross Pathology Categories\n(1) Surface redness, diffuse or mottled (reflecting hyperemia, hemostasis).+2 to +4.\n(2) Discrete focal surface lesions (reflecting thrombosis without disruption of gross pulmonary architecture)."}},
  "note": "“Also recorded” adds a separate entry of the source. Where a name gives a salt, the structure may show the parent alone.",
  "data": [
    {"smiles": "CC1(C)O[C@H]2O[C@H]([C@@H](COS(=O)(=O)O)OS(=O)(=O)O)[C@H](OS(=O)(=O)O)[C@H]2O1", "note": "[Compound III, 1,2-O-(2-Propylidene)-3,5,6-tri-O-sulfo-α-D-glucofuranose, tripotassium salt]", "values": [
      {"measurement": "% Change as a result of treatment", "setting": "[1]; reperfusion time 20 mins., i.p.", "result": -46, "unit": "%"},
      {"measurement": "Paw swelling, Mean ± SE", "setting": "[1]; reperfusion time 20 mins., control 8.20 ± 1.02", "result": "4.60 ± 0.40 0.1 mm"},
      {"measurement": "% Change as a result of treatment", "setting": "[1]; reperfusion time 30 mins., i.p.", "result": -36, "unit": "%"},
      {"measurement": "Paw swelling, Mean ± SE", "setting": "[1]; reperfusion time 30 mins., control 6.60 ± 0.87", "result": "4.20 ± 0.37 0.1 mm"},
      {"measurement": "inhibition of ischemic rat paw edema", "setting": "[1]; oral treatment route, after 20 minutes", "result": 44, "unit": "%"},
      {"measurement": "Swelling change as a result of treatment", "setting": "[1]; study A, 30 minutes reperfusion, 0.2 mg/kg i.p.", "result": -53, "unit": "%"},
      {"measurement": "Post-ischemic reperfusion 30 minute paw swelling, Mn ± SE", "setting": "[1]; study A, Compound III 0.2 mg/kg i.p. 45-60 minutes before tourniquet, control 12.7 ± 0.98", "result": "6.0 ± 0.32 0.1 mm"},
      {"measurement": "Swelling change as a result of treatment", "setting": "[1]; study B, 30 minutes, i.p., Compound III 0.2 mg/kg, allopurinol 20 mg/kg", "result": -40, "unit": "%"},
      {"measurement": "Post-ischemic reperfusion 30 minute paw swelling, Mn ± SE", "setting": "[1]; study B, i.p., Compound III 0.2 mg/kg, allopurinol 20 mg/kg, control 20.5 ± 0.76", "result": "12.2 ± 0.70 0.1 mm"},
      {"measurement": "Post-ischemic reperfusion 30 minute paw swelling, Mn ± SE", "setting": "[1]; study C, 0.2 mg/kg i.p., control 18.4 ± 0.54", "result": "10.2 ± 0.28 0.1 mm"},
      {"measurement": "Swelling change as a result of treatment", "setting": "[1]; study C, 30 minutes, 0.2 mg/kg i.p.", "result": -45, "unit": "%"},
      {"measurement": "effect on established ulcers, in words", "setting": "[2]", "result": "used alone did not enhance the healing process; also recorded: able to prevent the perforation of established ulcers"},
      {"measurement": "Mean Pathology score", "setting": "[3]; 50 mg/kg IV one hour before LPS, untreated 8.00 ± 1.02", "result": "2.25 ± 1.10"},
      {"measurement": "Drug Effect on mean pathology score", "setting": "[3]; 50 mg/kg IV", "result": -72, "unit": "%"}
    ]}
  ]
}
